Test results as given in patent US9499550B2 (BRISTOL-MYERS SQUIBB COMPANY, priority 2012, dated 2016).
Read-outs that look alike come from different tables or passages of the source.

Legend:
[1] = test system: HCV genotype 1a (H77 strain) replicon in HUH-7 cells; assay: HCV replicon luciferase reporter assay, genotype 1a; type: cell-based; conditions: Hepatitis C virus, Huh-7, 72 h, 3 days incubation, read-out: LE_1a (EC50, range)
Excerpt: (§1) Generation of HCV Replicon
(§2) An HCV replicon whole cell system was established as described by Lohmann V, Korner F, Koch J, Herian U, Theilmann L, Bartenschlager R., Science 285(5424):110-3 (1999) and modified to introduce a luciferase reporter, as first described by Krieger et al (Krieger N, Lohmann V, and Bartenschlager R, J. Virol. 75(10):4614-4624 (2001)). CDNA encoding a humanized form of the Renilla luciferase gene and a linker sequence fused directly to the 3′-end of the luciferase gene were introduced into the replicon construct using an Asc1 restriction site located in core, directly upstream of the neomycin marker gene. The adaptive mutation at position 1179 (serine to isoleucine) was also introduced (Blight K J, Kolykhalov, A A, Rice, C M, Science 290(5498):1972-1974). A stable cell line constitutively expressing this HCV replicon construct was generated by first linearizing plasmid DNAs with ScaI. RNA transcripts were synthesized in vitro using the T7 MegaScript transcription kit (Ambion, Austin, Tex.) according to manufacturer's directions. In vitro transcripts of the cDNA were transfected into the human hepatoma cell line, HUH-7. […] Resulting cell lines were characterized for positive and negative strand RNA production and protein production over time.
A stable HCV replicon luciferase reporter cell line representing the genotype 1a H77 strain (Yanagi M, Purcell R H, Emerson S U, et al. Transcripts from a single full-length cDNA clone of hepatitis C virus are infectious when directly transfected into the liver of a chimpanzee. Proc Natl Acad Sci USA 1997; 94(16):8738-8743) was generated as described previously for the genotype 1b(Con1) replicon luciferase cell line. The replicon construct was modified by introducing mutations were introduced into the genes encoding the NS3 helicase domain (proline replaced by leucine at position 1496) and NSSA (serine to isoleucine at position 2204) to improve replication in cell culture.
(§3) HCV Replicon Luciferase Reporter Assay
(§4) HCV replicon luciferase assays were developed to monitor the inhibitory effects of compounds described in the disclosure on HCV genotypes 1a and 1b viral replication. HUH-7 cells, constitutively expressing the HCV replicon, were grown in Dulbecco's Modified Eagle Media (DMEM) (Gibco-BRL) containing 10% Fetal calf serum (FCS) (Sigma) and 1 mg/mL G418 (Gibco-BRL). Compounds were serially diluted 3 folds in DMSO for a twenty-point titration and subsequently transferred to sterile 384-well tissue-culture treated plates (Corning cat #3571). The plates were then seeded with 50 μL of cells at a density of 3.0×10^3 cells/well in DMEM containing 4% FCS (final DMSO concentration at 0.5%). After 3 days incubation at 37° C., cells were analyzed for Renilla Luciferase activity using the EnduRen as substrate (Promega cat #E6485). The EnduRen substrate was diluted in DMEM and then added to the plates to a final concentration of 7.5 μM. The plates were incubated for 2 hrs at 37° C. and then read immediately for 30 seconds with Viewlux Imager (PerkinElmer) using a luminescence program. To assess cytotoxicity of compounds, CC50 values were generated by multiplexing the EnduRen-containing plates with Cell Titer-Blue (Promega, cat # G8082). Cell-Titer Blue (3 μL) was added to each well and incubated for 8 hrs at 37° C. The fluorescence signal from each well was read, with an excitation wavelength at 525/10 nm and an emission wavelength of 598/10 nm, using the Viewlux Imager.
(§5) The EC50 values for compounds were calculated by using a four-parameter logistic equation: y=A+((B−A)/(1+((C/x)^D))), where A and B denotes minimal and maximal % inhibition, respectively, C is the EC50, D is the hill slope and x represents compound concentration.

[2] = test system: HCV genotype 1b (Con1) replicon in HUH-7 cells; assay: HCV replicon luciferase reporter assay, genotype 1b; type: cell-based; conditions: Hepatitis C virus, Huh-7, 72 h, 3 days incubation, read-out: LE_1b (EC50, range)
Excerpt: as §1
as §2, with “time. […]” for “time.”
as §3, §4, §5

[3] = HCV genotype 1a replicon luciferase assay, range class
[4] = HCV genotype 1b replicon luciferase assay, range class
[5] = HCV genotype 1a replicon luciferase
[6] = HCV genotype 1b replicon luciferase
[7] = GETYPE1A, HCV genotype 1a replicon luciferase
[8] = GETYPE1B, HCV genotype 1b replicon luciferase

Structure (SMILES) | EC50 [1, 3] | EC50 [2, 4] | EC50 [1, 5] | EC50 [2, 6] | also measured
COc1cccc2c(O[C@@H]3C[C@H]4C(=O)N[C@]5(C(=O)NS(=O)(=O)C6(C)CC6)C[C@H]5/C=C\CC[C@H](C)C[C@@H](C)[C@H](NC(=O)OC(C)(C)C)C(=O)N4C3)nccc12 [Compound 3035, tert-butyl ((2R,6S,7R,9S,13aS,14aR,16aS,Z)-2-((5-methoxyisoquinolin-1-yl)oxy)-7,9-dimethyl-14a-(((1-methylcyclopropyl)sulfonyl)carbamoyl)-5,16-dioxo-1,2,3,5,6,7,8,9,10,11,13a,14,14a,15,16,16a-hexadecahydrocyclopropa[e]pyrrolo[1,2-a][1,4]diazacyclopentadecin-6-yl)carbamate] | 4.82 to 103 nM | < 5.46 nM | – | – | –
C[C@@H]1CC/C=C\[C@@H]2C[C@@]2(C(=O)NS(=O)(=O)C2(CF)CC2)NC(=O)[C@@H]2C[C@@H](Oc3cnc4ccccc4n3)CN2C(=O)[C@@H](NC(=O)OC(C)(C)C)[C@H](C)C1 [Compound 4130, tert-butyl (2R,6S,7R,9R,13aS,14aR,16aS,Z)-14a-(1-(fluoromethyl)cyclopropylsulfonylcarbamoyl)-7,9-dimethyl-5,16-dioxo-2-(quinoxalin-2-yloxy)-1,2,3,5,6,7,8,9,10,11,13a,14,14a,15,16,16a-hexadecahydrocyclopropa[e]pyrrolo[1,2-a][1,4]diazacyclopentadecin-6-ylcarbamate] | – | – | 4.82 to 103 nM | 4.82 to 103 nM | –
COc1cc(F)cc2c(O[C@@H]3C[C@H]4C(=O)N[C@]5(C(=O)NS(=O)(=O)C6CC6)C[C@H]5/C=C\CC[C@H](C)C[C@@H](C)[C@H](NC(=O)O[C@@H]5C[C@@H]6C[C@@H]6C5)C(=O)N4C3)nccc12 [Compound 3167, (1R,3r,5S)-bicyclo[3.1.0]hexan-3-yl((2R,6S,7R,9S,13aS,14aR,16aS,Z)-14a-((cyclopropylsulfonyl)carbamoyl)-2-((7-fluoro-5-methoxyisoquinolin-1-yl)oxy)-7,9-dimethyl-5,16-dioxo-1,2,3,5,6,7,8,9,10,11,13a,14,14a,15,16,16a-hexadecahydrocyclopropa[e]pyrrolo[1,2-a][1,4]diazacyclopentadecin-6-yl)carbamate] | 4.82 to 103 nM | < 5.46 nM | – | – | –
[2H]C([2H])([2H])C(OC(=O)N[C@@H]1C(=O)N2C[C@H](Oc3nn(CC)c(=O)c4ccccc34)C[C@H]2C(=O)N[C@]2(C(=O)NS(=O)(=O)C3CC3)C[C@H]2/C=C\CC[C@H](C)C[C@H]1C)(C([2H])([2H])[2H])C(F)(F)F [Compound 5068] | – | – | > 87.4 nM | > 87.4 nM | –
CC[C@@H]1C[C@H](C)CC/C=C\[C@@H]2C[C@@]2(C(=O)NS(=O)(=O)C2(C)CC2)NC(=O)[C@@H]2C[C@@H](Oc3nccc4cc(OC)c(F)cc34)CN2C(=O)[C@H]1NC(=O)OC1(C(F)(F)F)CCCCO1 (some centres unmarked) [Compound 1192] | – | – | – | – | EC50 [1, 7]: 1.01 to 5 nM; EC50 [2, 8]: 0.51 to 1 nM
COc1ccc2c(O[C@@H]3C[C@H]4C(=O)N[C@]5(C(=O)NS(=O)(=O)C6(C)CC6)C[C@H]5/C=C\CC[C@H](C)C[C@@H](C)[C@H](NC(=O)OC5(C(F)(F)F)COC5)C(=O)N4C3)nc(OC)cc2c1 [Compound 1140, 3-(trifluoromethyl)oxetan-3-yl ((2R,6S,7R,9S,13aS,14aR,16aS,Z)-2-((3,6-dimethoxyisoquinolin-1-yl)oxy)-7,9-dimethyl-14a-(((1-methylcyclopropyl)sulfonyl)carbamoyl)-5,16-dioxo-1,2,3,5,6,7,8,9,10,11,13a,14,14a,15,16,16a-hexadecahydrocyclopropa[e]pyrrolo[1,2-a][1,4]diazacyclopentadecin-6-yl)carbamate] | < 5.46 nM | < 5.46 nM | – | – | –
COc1ccc2c(O[C@@H]3C[C@H]4C(=O)N[C@]5(C(=O)NS(=O)(=O)C6CC6)C[C@H]5/C=C\CC[C@H](C)C[C@@H](C)[C@H](NC(=O)OC(C)(C)C(F)(F)F)C(=O)N4C3)nc(-c3ccc(OC(C)C)cc3)nc2c1 [Compound 3021, 1,1,1-trifluoro-2-methylpropan-2-yl((2R,6S,7R,9S,13aS,14aR,16aS,Z)-14a-((cyclopropylsulfonyl)carbamoyl)-2-((2-(4-isopropoxyphenyl)-7-methoxyquinazolin-4-yl)oxy)-7,9-dimethyl-5,16-dioxo-1,2,3,5,6,7,8,9,10,11,13a,14,14a,15,16,16a-hexadecahydrocyclopropa[e]pyrrolo[1,2-a][1,4]diazacyclopentadecin-6-yl)carbamate] | < 5.46 nM | < 5.46 nM | – | – | –
C[C@@H]1CC/C=C\[C@@H]2C[C@@]2(C(=O)NS(=O)(=O)C2(C)CC2)NC(=O)[C@@H]2C[C@@H](Oc3nc(OCC(F)F)cc4c(Cl)cccc34)CN2C(=O)[C@@H](NC(=O)OC(C)(C)C)[C@H](C)C1 [Compound 1074, tert-butyl ((2R,6S,7R,9R,13aS,14aR,16aS,Z)-2-((5-chloro-3-(2,2-difluoroethoxyl)isoquinolin-1-yl)oxy)-7,9-dimethyl-14a-(((1-methylcyclopropyl)sulfonyl)carbamoyl)-5,16-dioxo-1,2,3,5,6,7,8,9,10,11,13a,14,14a,15,16,16a-hexadecahydrocyclopropa[e]pyrrolo[1,2-a][1,4]diazacyclopentadecin-6-yl)carbamate] | < 5.46 nM | < 5.46 nM | – | – | –
[2H]C([2H])([2H])C(C)(OC(=O)N[C@@H]1C(=O)N2C[C@H](Oc3nnc(OC)c4ccccc34)C[C@H]2C(=O)N[C@]2(C(=O)NS(=O)(=O)C3(C)CC3)C[C@H]2/C=C\CC[C@H](C)C[C@H]1CC)C([2H])([2H])[2H] [Compound 5021] | – | – | 4.82 to 103 nM | < 5.46 nM | –
COc1cc2c(OC)cnc(O[C@@H]3C[C@H]4C(=O)N[C@]5(C(=O)NS(=O)(=O)C6(CO)CC6)C[C@H]5/C=C\CC[C@@H](C)C[C@@H](C)[C@H](NC(=O)OC(C)(C)C(F)(F)F)C(=O)N4C3)c2cc1F [Compound 4238] | – | – | – | – | EC50 [1, 7]: 4.82 to 103 nM; EC50 [2, 8]: 4.82 to 103 nM
